Like-named read-outs stand apart in the source and are kept apart here.
Tests used:
[1] = Liver microsome assay, metabolite formation; format: in vitro ADME, human; details: metabolite is compound 24B
MOLM-14 = assay: Cell growth assay, MOLM-14 AML cell line; format: cell-based, human
Method: (§1) For all other cell lines, compounds were serially diluted in medium and dispensed in triplicate in 96-well plates (0.1% DMSO final for assay) followed by the addition of exponentially growing cells at densities ranging from 5,000 to 30,000 cells/well. Cells were also seeded into 2 additional control wells containing vehicle (0.1% DMSO). […] To determine the estimated cell number in each well, cells that were counted in the control well were diluted 3-fold for an 8-point dilution series, and transferred to 384-well plates in duplicate, 20 μL per well. Cells in all other wells were diluted 4-fold and transferred to 384-well plates in duplicate, 20 μL per well. 20 μL of CellTiter-Glo (Promega) was subsequently added to all wells and luminescence was detected using a SPECTRAmax M3. The control well dilution series was fit to a linear regression and used as a standard for calculating the estimated cell number for each well. For days 7 and 10, total estimated cell number represents the split-adjusted theoretical cell number.

AML cells = assay: Comparison with cortistatin A: AML cell growth inhibition and CDK8 kinase inhibition; format: cell-based, human; details: more potent than cortistatin A
Method: For all other cell lines, compounds were serially diluted in medium and dispensed in triplicate in 96-well plates (0.1% DMSO final for assay) followed by the addition of exponentially growing cells at densities ranging from 5,000 to 30,000 cells/well. Cells were also seeded into 2 additional control wells containing vehicle (0.1% DMSO). After 3 days, the number of viable cells in one of the control wells was counted by hemocytometer or MOXI Z (Orflo) and an equal volume of cells for all wells were split-back with fresh vehicle/compounds such that the resulting seeding density for the control well was 5,000-30,000 cells/well, matching the initial seeding density in that well. This procedure was repeated on day 7 and day 10. % growth was calculated as % growth=100×(total estimated cell number in well−day 0 starting cell number)/(total average vehicle estimated cell number−day 0 starting cell number). To determine the estimated cell number in each well, cells that were counted in the control well were diluted 3-fold for an 8-point dilution series, and transferred to 384-well plates in duplicate, 20 μL per well. Cells in all other wells were diluted 4-fold and transferred to 384-well plates in duplicate, 20 μL per well. 20 μL of CellTiter-Glo (Promega) was subsequently added to all wells and luminescence was detected using a SPECTRAmax M3. […]

MV4;11 = assay: Cell growth assay, MV4;11 AML cell line; format: cell-based, human
Method: as §1

K562 = assay: Cell growth assay, K562 cell line; format: cell-based, human; details: day 10, lack of activity is taken as evidence of on-target selectivity
Method: For all other cell lines, compounds were serially diluted in medium and dispensed in triplicate in 96-well plates (0.1% DMSO final for assay) followed by the addition of exponentially growing cells at densities ranging from 5,000 to 30,000 cells/well. Cells were also seeded into 2 additional control wells containing vehicle (0.1% DMSO). After 3 days, the number of viable cells in one of the control wells was counted by hemocytometer or MOXI Z (Orflo) and an equal volume of cells for all wells were split-back with fresh vehicle/compounds such that the resulting seeding density for the control well was 5,000-30,000 cells/well, matching the initial seeding density in that well. This procedure was repeated on day 7 and day 10. % growth was calculated as % growth=100×(total estimated cell number in well−day 0 starting cell number)/(total average vehicle estimated cell number−day 0 starting cell number). To determine the estimated cell number in each well, cells that were counted in the control well were diluted 3-fold for an 8-point dilution series, and transferred to 384-well plates in duplicate, 20 μL per well. Cells in all other wells were diluted 4-fold and transferred to 384-well plates in duplicate, 20 μL per well. 20 μL of CellTiter-Glo (Promega) was subsequently added to all wells and luminescence was detected using a SPECTRAmax M3. The control well dilution series was fit to a linear regression and used as a standard for calculating the estimated cell number for each well. For days 7 and 10, total estimated cell number represents the split-adjusted theoretical cell number.

[2] = Liver microsome metabolic stability assay; format: in vitro ADME; details: 1 micromolar, 0.5 mg/ml microsomal protein
Method: Test compounds were incubated at 37° C. with liver microsomes pooled from multiple donors at 1 micromolar in the presence of a NADPII regenerating system at 0.5 mg/ml microsomal protein. At 0, 5, 10, 20, 30, and 60 minutes, samples were removed, and mixed with cold acetonitrile containing an internal standard. After protein separation, samples were analyzed by LC/MS/MS for disappearance of the test compound using the ratio of peak area of analyte to internal standard. From the values, the microsome clearance was calculated. Species used were human, Sprague Dawley rat, beagle dog, and CD-1 mouse.

[3] = Human hepatocyte stability assay; format: in vitro ADME; details: 1 μM
Method: Test compounds were incubated in duplicate with cryopreserved hepatocytes at 37° C. The cells were thawed; viable cells counted, and equilibrated according to the supplier's directions. After 30 min equilibration at 37° C. with gentle agitation, the test compounds were added into the cells to give the desired final concentration of 1 μM. The cell suspension was incubated at 37° C. as above. At the indicated times, samples were removed and mixed with an equal volume of ice-cold Stop Solution (acetonitrile containing internal standards). Stopped reactions were incubated at least ten minutes on ice, and an additional volume of water was added. The samples were centrifuged to remove precipitated protein, and the supernatants were analyzed by LC/MS/MS to quantitate the remaining parent. Data were converted to % remaining by dividing by the time zero concentration value. Data were fit to a first-order decay model to determine half-life. From a plot of log (ln) peak area against time, the slope of the line was determined. Subsequently, half-life and intrinsic clearance were calculated using the equations below: Elimination rate constant (k)=(−slope); Half-life (T1/2) min=0.693/k; Intrinsic Clearance (CLint) (ml/min/million cells)=(V×0.693)/T1/2; V=incubation volume ml/number of cells.

[4] = tested on: SET-2 subcutaneous xenograft; assay: SET-2 subcutaneous xenograft model; format: in vivo, SCID Beige mice; details: 0.16 mg kg-1 daily, n=10, P<0.001
Method: (§2) Efficacy studies using the MV4;11 xenograft model were performed as previously described. See, e.g., Etchin et al., Leukemia (2013) 27, 66-74. Briefly, 2 million MV4;11 mCLP cells were introduced into 7-week-old female NOD-SCID-IL2Rcγ^null (NSG) mice (The Jackson Laboratory) via tail vein injection. The tumor burden was assessed by bioluminescence imaging (BLI) using an IVIS Spectrum system (Caliper Life Sciences). […] At 30 days post-treatment start date, 3 mice per group were sacrificed and blood counts were obtained using Hemavet 950 F instrument (Drew Scientific) and spleen, femur, and peripheral blood cells were collected and analyzed by flow cytometry (LSR Fortessa, BD Biosciences). The mice and a portion of the spleen were also preserved in bouins for histopathology. Mice were sectioned, paraffin-embedded and stained with hematoxylin and eosin. Survival of the drug-treated mice was measured as the time from initiation of therapy until moribund state. Survival benefit was assessed by Kaplan-Meier analysis. […] 2 h after the last dose, the mice were sacrificed, blood counts were obtained, blood chemistry was analyzed and the mice were fixed with bouins for histopathology. […] Once tumors reached an average size of 80-120 mm^3, the mice were treated with vehicle or 0.16 mg kg^−1 daily for the duration of the study.

MV4;11 AML cells = assay: MV4;11 disseminated leukemia mouse model of AML; format: in vivo, NOD-SCID-IL2Rcγnull (NSG) mice; details: 0.05 and 0.16 mg/kg once daily for 15 days
Method: as §2

[5] = Safety testing in healthy CD-1 mice; format: in vivo; details: 0.16 mg kg-1 once daily for 15 days, 2 hours after last dose
Method: as §2

Wnt/beta-catenin pathway = assay: Wnt/beta-catenin reporter assay (SuperTOPflash luciferase, HEK293STF); format: cell-based; details: 24 hour treatment with Wnt3A or 10 μM azakenpaullone; read-out: IC50, inhibition of luciferase expression
Method: Exponentially growing HEK293STF were plated in triplicate in 96-well plates at a density of 5,000 cells/well in 75 μL. […] Additional triplicate control wells on each plate had media without cells or cells without azakenpaullone. For experiments with Wnt3A conditioned media, after 24 h, compounds were serially diluted in Wnt3A conditioned media as 1× solutions (0.1% DMSO final). Old media was removed from the cells and replaced with the compound/Wnt3A-media. Additional triplicate control wells on each plate had media without cells or cells that were treated with L-conditioned media (no Wnt3A). After 24 h, the CellTiter-Fluor and Steady-Glo assays (Promega) were subsequently performed in series to determine viability and luminescence, respectively, in each well (measurements made on a SPECTRAmax M3, Molecular Devices). Graphs were made in Prism 5 (GraphPad Software, Inc.) with nonlinear regression fit to a sigmoidal dose-response curve (variable slope).

BCL2L11 expression = assay: BCL2L11 mRNA levels in MV4;11 and MOLM-14 cells; format: cell-based, human; details: 24 h treatment
[6] = tested on: MPLW515L-transduced bone marrow; assay: Murine model of primary myelofibrosis (MPLW515L); format: in vivo, mice
[7] = tested on: STAT1 pS727 (CDK8 module kinase activity) in HepG2 cells; assay: IFN-γ-stimulated STAT1 S727 phosphorylation, western blot; format: cell-based, human; details: 1 hour compound then 1 hour IFN-γ; STAT1 pY701 and total STAT1 unaltered
Method: CDK8 has been reported to […] interferon gamma-stimulated phosphorylation of STAT1 S727. See, e.g., Bancerek et al., Immunity (2013) 38:250-262. […] The cells were lysed and probed by western blot.
(§3) For STAT1 studies, MOLM-14 cells were treated with vehicle (0.1% DMSO) or compound for 1 h followed by the addition of IFNγ (Life Technologies, PHC4031) for 1 h. Cells were then collected, washed twice with cold PBS and snap frozen in liquid nitrogen. For all Western blotting, whole-cell lysates were prepared in RPA buffer (Sigma-Aldrich, R0278) with phosphatase and protease inhibitor additives (Sigma-Aldrich, P8340, P0044, P5762) and protein concentration was determined by BCA assay (Thermo Scientific, 23225). RIPA extracts were resolved by denaturing polyacrylamide gel electrophoresis (Life Technologies, NuPAGE) and transferred to PVDF membrane (Millipore) using the Mini Trans-Blot system (BioRad). The membranes were probed as recommended by the antibody manufacturers and proteins detected by chemiluminescence using horseradish peroxidase-conjugated secondary antibodies. For SMAD2/3 studies, HaCaT cells were treated as described for STAT1 with the addition of TGFβ1 (R&D Systems) in place of IFNγ.

[8] = tested on: SMAD2/3 phosphorylation in HaCat cells; assay: TGF-beta-stimulated SMAD2/3 phosphorylation, western blot; format: cell-based; details: 1 hour compound then 1 hour TGF-beta
Method: as §3

[9] = Pharmacokinetic study of cortistatin A in CD-1 mice; format: in vivo, CD-1 mice; details: for Cmax: mouse, in vivo, ip
[10] = Homo sapiens, MOLM-14, 240 h, day 10, cells passaged, fresh compound added on days 3 and 7, read-out: MOL M14 G150 day 10
[11] = Homo sapiens, MV4-11, 240 h, day 10, cells passaged, fresh compound added on days 3 and 7, read-out: MV 4;11 GI50 day 10

With `CN(C)[C@H]1CCC2=CC3=CC[C@]4(C)[C@@H](c5ccc6ccncc6c5)CC[C@H]4C34CC[C@]2(C1)O4` [14B, β-dimethylamine] the “metabolism in human liver microsomes” value [1] was “undergoes N-monodemethylation at C3”, the GI50 (MOLM-14; [10]) was 3 nM and the GI50 (MOLM-14; Homo sapiens, MOLM-14, day 7, fresh compound added on day 3, read-out: MOL M14 GI50 day 7) was 7 nM. For the same compound, the “potency relative to cortistatin A in cell growth inhibition and in CDK8 kinase inhibition” value (AML cells) was “approximately 2 fold”, the GI50 (MV4;11; [11]) was 4 nM and the GI50 (MV4;11; Homo sapiens, MV4-11, day 7, fresh compound added on day 3, read-out: MV4;11 GI50 day 7) was 8 nM. The GI50 (K562; Homo sapiens, K562, 240 h) was over 1000 nM.

With `C[C@]12CC=C3C=C4CC[C@H]([N+](C)(C)[O-])CC45CC[C@]3(O5)[C@@H]1CC[C@@H]2c1ccc2ccncc2c1` [14BNO, 14B-N-Oxide] the GI50 (MOLM-14; [10]) was 2 nM, the GI50 (MV4;11; [11]) was 1 nM and the “metabolic stability in liver microsomes compared with 14B” value [2] was “increased stability”. The “metabolic stability in liver microsomes compared with 14B” value ([2]; listed as N-oxide of compound 14B) was “improved stability”, the “half-life and clearance rate in hepatocytes” value [3] was “acceptable half-life and clearance rate” and the GI50 (K562; Homo sapiens, K562, 240 h) was over 1000 nM.

cortistatin A [CA] gave a tumor growth inhibition [4] of 68%, a GI50 (MOLM-14; day 7, fresh compound added on day 3, read-out: MOL M14 GI50 day 7) of 9 nM and a GI50 (MOLM-14; day 10, cells passaged, fresh compound added on days 3 and 7, read-out: MOL M14 G150 day 10) of 5 nM. The “efficacy (bioluminescence, survival, spleen and bone marrow burden)” value (MV4;11 AML cells) was “effective”, the mean body weight (MV4;11 AML cells; n=11) was “did not decrease” and the “complete blood count (CBC) vs vehicle” value [5] was “no significant differences”. The IC50 (Wnt/beta-catenin pathway) was 1.5 nM, the “mRNA levels of BCL2L11” value (BCL2L11 expression) was “dose-dependently increases” and the spleen weights ([6]; 0.31 mg/kg and 0.62 mg/kg i.p. once daily, after 6 doses) was “significant reduction”. For the same compound, the “allele burden (GFP percentage in peripheral blood)” value ([6]; after 4 doses of daily treatment) was “significant reduction”, the “inhibition of IFN-γ-stimulated increase in STAT1 pS727” value [7] was “potently inhibited” and the “TGF-beta-stimulated SMAD2/3 phosphorylation” value [8] was “dose-dependently inhibited”. For the same compound, the GI50 (MV4;11; day 7, fresh compound added on day 3, read-out: MV4;11 GI50 day 7) was 9 nM, the GI50 (MV4;11; day 10, cells passaged, fresh compound added on days 3 and 7, read-out: MV 4;11 GI50 day 10) was 4 nM and the “calculated T1/2” value ([9]; 10 mg/kg IP in 10% DMSO/phosphate buffered saline pH6, male CD-1 mice) was 6.06 h. The Cmax ([9]; 1 mg/kg) was 762 nM, the Cmax ([9]; 10 mg/kg, pH 6) was 1400 nM and the “calculated T1/2 between 0.5-2 h” value ([9]; single IP injection 1 mg/kg in 20% HPCD, male CD-1 mice) was 0.55 h. It also gave a GI50 (K562) of over 1000 nM.

Source: patent US10273241B2 (President and Fellows of Harvard College, priority 2013, dated 2019)
